Results reported in ChEMBL document CHEMBL4138076, “Methyllysine binding domains: Structural insight and small molecule probe development” (Eur J Med Chem, 2017).
pIC50, pKd, pKi: −log10 of the molar value. One block for each compound: values may come before it. Square brackets hold non-standard residues; d marks the D form. Peptide text beside a SMILES is read from it. * marks the point of attachment. Benzoyl(4-tBu) = CC(C)(C)c1ccc(C(=O)*)cc1; Lys(Me3) = C[N+](C)(C)CCCC[C@H](N)C(=O)O; Lys(Et2) = CCN(CC)CCCC[C@H](N)C(=O)O; Bz = O=C(c1ccccc1)*

Experiments:
[1] = molecular target: T1, Lethal(3)malignant brain tumor-like protein 1 (Homo sapiens, UniProt Q9Y468); assay: Inhibition of L3MBTL1 (unknown origin) by AlphaScreen assay
T1 sequence (Q9Y468 whole entry): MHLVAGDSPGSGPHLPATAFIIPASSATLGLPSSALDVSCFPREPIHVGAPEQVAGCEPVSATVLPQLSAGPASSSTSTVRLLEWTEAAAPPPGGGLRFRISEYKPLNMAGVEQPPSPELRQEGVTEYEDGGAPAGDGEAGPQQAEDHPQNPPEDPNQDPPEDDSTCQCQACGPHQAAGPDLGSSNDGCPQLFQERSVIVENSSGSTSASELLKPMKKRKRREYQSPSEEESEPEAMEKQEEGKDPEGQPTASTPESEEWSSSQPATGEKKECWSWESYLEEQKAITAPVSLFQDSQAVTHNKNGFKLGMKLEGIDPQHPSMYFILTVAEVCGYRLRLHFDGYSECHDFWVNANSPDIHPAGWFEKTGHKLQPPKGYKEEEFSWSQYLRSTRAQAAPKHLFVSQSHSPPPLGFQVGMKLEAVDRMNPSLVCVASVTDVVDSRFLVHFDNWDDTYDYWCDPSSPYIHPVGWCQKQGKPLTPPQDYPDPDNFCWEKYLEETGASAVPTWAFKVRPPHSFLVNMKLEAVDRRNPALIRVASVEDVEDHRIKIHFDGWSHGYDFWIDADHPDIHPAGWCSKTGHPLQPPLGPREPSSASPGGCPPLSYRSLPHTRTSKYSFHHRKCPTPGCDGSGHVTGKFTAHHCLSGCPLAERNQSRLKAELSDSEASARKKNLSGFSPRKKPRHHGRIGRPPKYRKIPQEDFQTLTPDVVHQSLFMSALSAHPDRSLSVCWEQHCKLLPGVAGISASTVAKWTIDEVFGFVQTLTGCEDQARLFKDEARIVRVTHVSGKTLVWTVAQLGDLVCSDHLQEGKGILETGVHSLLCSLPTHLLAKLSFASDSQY

[2] = molecular target: T2, Chromodomain Y-like protein (Homo sapiens) (UniProt Q9Y232); assay: Binding affinity to N-terminal GST-tagged CDYL (1 to 78 residues) (unknown origin) expressed in Rosetta2 BL21(DE3)pLysS cells after 30 mins by ITC method
T2 sequence (whole entry): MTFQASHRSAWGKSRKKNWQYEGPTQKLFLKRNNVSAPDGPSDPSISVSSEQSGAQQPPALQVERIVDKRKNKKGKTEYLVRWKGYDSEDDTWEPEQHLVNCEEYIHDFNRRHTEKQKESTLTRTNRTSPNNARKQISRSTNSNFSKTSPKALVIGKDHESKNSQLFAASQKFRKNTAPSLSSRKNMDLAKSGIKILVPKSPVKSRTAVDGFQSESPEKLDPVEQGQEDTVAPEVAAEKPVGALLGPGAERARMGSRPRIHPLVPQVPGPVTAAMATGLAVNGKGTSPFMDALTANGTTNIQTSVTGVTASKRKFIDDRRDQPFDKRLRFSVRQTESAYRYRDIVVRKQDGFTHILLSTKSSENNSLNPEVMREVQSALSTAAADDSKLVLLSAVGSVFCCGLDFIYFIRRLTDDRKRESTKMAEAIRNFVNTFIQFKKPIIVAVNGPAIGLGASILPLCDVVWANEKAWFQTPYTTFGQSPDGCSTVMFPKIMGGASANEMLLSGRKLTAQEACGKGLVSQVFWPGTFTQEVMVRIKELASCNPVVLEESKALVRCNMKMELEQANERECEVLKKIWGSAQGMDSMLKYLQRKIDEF

[3] = molecular target: TP53-binding protein 1 (Mus musculus) (UniProt P70399); assay: Inhibition of 53BP1 in mouse naive IgM+ B cells assessed as suppression of LPS/IL4 stimulated B cell antibody class switch recombination by FACS analsysis; type: cell-based; settings: concentration not given here
TP53-binding protein 1 = TP53-binding protein 1 (Homo sapiens, UniProt Q12888); assay: Competitive displacement of p53K382me2 from His-tagged 53BP1 tandem Tudor domain (unknown origin)
Polycomb protein EED [4] = molecular target: T3, Polycomb protein EED (Homo sapiens, UniProt O75530); assay: Binding affinity to full length N-terminal His-tagged EED (unknown origin) expressed in Rosetta2 BL21(DE3)pLysS cells by ITC method
Polycomb protein EED [5] = molecular target: T3, Polycomb protein EED; assay: Inhibition of full length N-terminal His-tagged EED (unknown origin) expressed in Rosetta2 BL21(DE3)pLysS cells after 30 mins by 3-FAM labelled fluorescence polarization assay
[6] = molecular target: T4, Chromobox protein homolog 7 (Homo sapiens, UniProt O95931); assay: Inhibition of Cbx7 (unknown origin) using FITC-labeled SETDB1-K1170me3 peptide as probe by fluorescence polarization assay
T4 sequence (O95931 whole entry): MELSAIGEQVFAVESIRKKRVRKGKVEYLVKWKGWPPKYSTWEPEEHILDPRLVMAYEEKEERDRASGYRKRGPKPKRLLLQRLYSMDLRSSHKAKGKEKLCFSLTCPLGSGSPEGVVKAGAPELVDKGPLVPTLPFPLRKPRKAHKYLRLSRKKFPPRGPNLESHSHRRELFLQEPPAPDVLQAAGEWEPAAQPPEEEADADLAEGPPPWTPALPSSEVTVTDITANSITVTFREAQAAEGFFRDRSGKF

PC-3 = assay: Antiproliferative activity against human PC3 cells after 3 days by DAPI staining-based microscopic analysis; type: functional; settings: PC-3, 72 h
[7] = Inhibition of PRC2 (unknown origin) after 70 mins in presence of [3H]SAM by TopCount method; set-up: species or system Homo sapiens
[8] = molecular target: Lysine-specific demethylase 5A (Homo sapiens, UniProt P29375); assay: Inhibition of JARID1A (unknown origin)
[9] = molecular target: T4, Chromobox protein homolog 7; assay: Binding affinity to Cbx7 (unknown origin) by ITC method

T3 sequence (O75530 whole entry): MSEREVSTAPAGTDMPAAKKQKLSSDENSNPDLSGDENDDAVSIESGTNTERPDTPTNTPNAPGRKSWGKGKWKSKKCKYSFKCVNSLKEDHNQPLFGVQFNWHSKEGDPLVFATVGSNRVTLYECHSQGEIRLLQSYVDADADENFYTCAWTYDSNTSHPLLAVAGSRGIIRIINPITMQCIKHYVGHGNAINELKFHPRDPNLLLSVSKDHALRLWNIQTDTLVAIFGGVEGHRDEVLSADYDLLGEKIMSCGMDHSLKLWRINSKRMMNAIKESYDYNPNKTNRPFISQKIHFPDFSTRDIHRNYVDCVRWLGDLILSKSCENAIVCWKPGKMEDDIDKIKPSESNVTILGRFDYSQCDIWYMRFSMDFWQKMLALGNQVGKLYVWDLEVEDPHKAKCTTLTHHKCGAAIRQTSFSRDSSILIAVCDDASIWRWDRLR
Sequence of TP53-binding protein 1 (Mus musculus) (P70399 whole entry, the tested form may be a part): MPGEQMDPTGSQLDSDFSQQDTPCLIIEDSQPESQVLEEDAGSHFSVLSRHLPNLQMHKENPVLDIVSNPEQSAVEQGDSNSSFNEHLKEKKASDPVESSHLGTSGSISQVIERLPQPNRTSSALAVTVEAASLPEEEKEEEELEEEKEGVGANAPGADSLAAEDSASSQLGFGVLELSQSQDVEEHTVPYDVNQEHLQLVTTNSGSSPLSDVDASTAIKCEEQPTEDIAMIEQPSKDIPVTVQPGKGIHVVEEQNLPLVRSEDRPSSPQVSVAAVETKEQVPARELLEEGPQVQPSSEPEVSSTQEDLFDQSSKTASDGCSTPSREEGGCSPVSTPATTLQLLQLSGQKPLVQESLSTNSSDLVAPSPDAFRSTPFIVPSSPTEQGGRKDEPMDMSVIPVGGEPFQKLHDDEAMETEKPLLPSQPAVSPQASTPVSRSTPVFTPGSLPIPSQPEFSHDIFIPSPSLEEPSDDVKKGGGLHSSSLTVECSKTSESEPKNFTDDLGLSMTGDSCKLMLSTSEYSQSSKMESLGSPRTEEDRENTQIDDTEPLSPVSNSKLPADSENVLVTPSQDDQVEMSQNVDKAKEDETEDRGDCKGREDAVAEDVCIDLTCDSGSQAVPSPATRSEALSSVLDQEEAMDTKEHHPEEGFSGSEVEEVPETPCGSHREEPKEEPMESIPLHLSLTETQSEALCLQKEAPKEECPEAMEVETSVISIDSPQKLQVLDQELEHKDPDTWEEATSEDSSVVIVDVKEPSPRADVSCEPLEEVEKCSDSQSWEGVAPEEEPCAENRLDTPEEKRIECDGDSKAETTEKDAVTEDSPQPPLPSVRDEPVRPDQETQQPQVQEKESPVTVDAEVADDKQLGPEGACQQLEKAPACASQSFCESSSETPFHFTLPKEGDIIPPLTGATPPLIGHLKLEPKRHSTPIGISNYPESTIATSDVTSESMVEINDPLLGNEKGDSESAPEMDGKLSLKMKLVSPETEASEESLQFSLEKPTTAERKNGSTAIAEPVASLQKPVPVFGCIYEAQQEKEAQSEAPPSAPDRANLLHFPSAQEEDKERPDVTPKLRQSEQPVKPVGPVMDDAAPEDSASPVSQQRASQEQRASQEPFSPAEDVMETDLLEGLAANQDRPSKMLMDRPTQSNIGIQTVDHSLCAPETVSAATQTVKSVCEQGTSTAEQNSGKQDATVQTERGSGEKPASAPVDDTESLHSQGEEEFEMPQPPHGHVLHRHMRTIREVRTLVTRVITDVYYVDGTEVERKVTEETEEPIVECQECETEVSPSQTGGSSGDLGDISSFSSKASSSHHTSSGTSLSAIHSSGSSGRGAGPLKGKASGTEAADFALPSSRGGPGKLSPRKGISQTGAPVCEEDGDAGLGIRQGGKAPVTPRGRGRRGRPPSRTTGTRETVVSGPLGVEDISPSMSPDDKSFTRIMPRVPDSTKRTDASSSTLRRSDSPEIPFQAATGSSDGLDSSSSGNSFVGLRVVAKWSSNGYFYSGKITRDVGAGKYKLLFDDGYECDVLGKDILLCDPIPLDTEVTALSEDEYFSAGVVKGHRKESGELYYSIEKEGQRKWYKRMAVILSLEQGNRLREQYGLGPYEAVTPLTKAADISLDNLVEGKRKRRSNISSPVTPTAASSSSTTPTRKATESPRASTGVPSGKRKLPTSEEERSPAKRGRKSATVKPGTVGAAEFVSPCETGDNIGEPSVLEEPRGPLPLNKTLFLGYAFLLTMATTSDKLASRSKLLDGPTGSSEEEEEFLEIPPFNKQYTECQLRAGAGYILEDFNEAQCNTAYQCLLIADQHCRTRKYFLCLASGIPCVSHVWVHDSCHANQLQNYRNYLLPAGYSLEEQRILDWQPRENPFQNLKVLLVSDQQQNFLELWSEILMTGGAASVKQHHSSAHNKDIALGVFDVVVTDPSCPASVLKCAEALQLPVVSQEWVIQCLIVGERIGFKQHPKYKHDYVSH
Sequence of Lysine-specific demethylase 5A (P29375 whole entry): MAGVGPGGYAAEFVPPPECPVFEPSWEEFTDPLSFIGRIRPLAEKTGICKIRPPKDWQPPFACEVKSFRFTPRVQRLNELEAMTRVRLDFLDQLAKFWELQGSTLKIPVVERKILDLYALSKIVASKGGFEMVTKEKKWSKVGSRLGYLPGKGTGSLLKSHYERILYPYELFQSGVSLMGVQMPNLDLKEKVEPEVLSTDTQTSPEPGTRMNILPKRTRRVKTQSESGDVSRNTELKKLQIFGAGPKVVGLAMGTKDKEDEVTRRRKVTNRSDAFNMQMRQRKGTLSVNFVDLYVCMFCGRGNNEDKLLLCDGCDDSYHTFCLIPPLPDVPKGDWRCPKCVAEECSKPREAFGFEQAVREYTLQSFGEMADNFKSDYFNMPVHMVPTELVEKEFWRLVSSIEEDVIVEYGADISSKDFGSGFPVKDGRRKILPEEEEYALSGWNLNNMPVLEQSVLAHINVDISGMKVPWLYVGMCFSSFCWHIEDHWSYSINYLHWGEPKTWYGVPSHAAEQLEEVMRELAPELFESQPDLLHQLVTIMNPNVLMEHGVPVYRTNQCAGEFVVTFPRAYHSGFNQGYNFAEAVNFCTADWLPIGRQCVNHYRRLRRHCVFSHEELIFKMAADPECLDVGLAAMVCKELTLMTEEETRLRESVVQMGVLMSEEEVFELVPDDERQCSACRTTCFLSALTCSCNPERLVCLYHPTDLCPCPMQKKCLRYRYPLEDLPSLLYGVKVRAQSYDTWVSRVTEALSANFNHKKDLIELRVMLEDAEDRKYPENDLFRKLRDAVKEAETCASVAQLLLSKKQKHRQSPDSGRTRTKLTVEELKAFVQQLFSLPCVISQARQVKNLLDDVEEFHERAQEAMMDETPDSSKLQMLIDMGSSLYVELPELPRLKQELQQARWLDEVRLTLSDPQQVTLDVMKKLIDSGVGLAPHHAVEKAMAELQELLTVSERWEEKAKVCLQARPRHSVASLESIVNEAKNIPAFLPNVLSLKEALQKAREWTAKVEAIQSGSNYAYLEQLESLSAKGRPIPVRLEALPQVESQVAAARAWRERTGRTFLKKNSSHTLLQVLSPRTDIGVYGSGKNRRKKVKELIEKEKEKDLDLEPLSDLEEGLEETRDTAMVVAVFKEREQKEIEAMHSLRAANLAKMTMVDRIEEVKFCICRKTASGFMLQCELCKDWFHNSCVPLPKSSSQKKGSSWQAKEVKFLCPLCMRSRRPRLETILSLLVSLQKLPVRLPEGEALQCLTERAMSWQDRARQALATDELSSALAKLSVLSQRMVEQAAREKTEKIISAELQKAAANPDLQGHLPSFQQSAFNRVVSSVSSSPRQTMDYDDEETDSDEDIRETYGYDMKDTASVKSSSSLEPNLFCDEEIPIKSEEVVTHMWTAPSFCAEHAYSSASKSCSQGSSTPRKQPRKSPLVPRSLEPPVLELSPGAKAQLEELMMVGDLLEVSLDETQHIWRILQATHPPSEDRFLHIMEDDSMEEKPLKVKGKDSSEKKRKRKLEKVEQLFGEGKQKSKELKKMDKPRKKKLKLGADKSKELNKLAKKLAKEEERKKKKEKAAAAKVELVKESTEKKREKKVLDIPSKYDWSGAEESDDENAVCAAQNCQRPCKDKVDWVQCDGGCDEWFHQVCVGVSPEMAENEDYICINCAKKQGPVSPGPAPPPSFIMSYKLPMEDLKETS

SMILES: NC(=O)c1cc[n+](CC2=C(C(=O)O)N3C(=O)[C@@H](NC(=O)[C@@H](c4ccccc4)S(=O)(=O)[O-])[C@H]3SC2)cc1 [CEFSULODIN]
pIC50 [1]: 7.01

SMILES: Cc1ccc(C(=O)Nc2ccc(S(=O)(=O)O)c3cc(S(=O)(=O)O)cc(S(=O)(=O)O)c23)cc1NC(=O)c1cccc(NC(=O)Nc2cccc(C(=O)Nc3cc(C(=O)Nc4ccc(S(=O)(=O)O)c5cc(S(=O)(=O)O)cc(S(=O)(=O)O)c45)ccc3C)c2)c1 [SURAMIN]
pIC50 [6]: 5.09

SMILES: COc1cc(/C=C(\C#N)C(=O)c2ccc(O)c(O)c2)cc(I)c1O
pIC50 [1]: 6.55

SMILES: C[C@H](NC(=O)[C@H](CCCCN)NC(=O)CNC(=O)CNC(=O)[C@@H](NC(=O)[C@H](CO)NC(=O)[C@H](CCCCN)NC(=O)[C@H](CCCNC(=N)N)NC(=O)[C@H](C)NC(=O)[C@@H](NC(=O)[C@H](CCC(N)=O)NC(=O)[C@H](CCCCN(C)C)NC(=O)[C@@H](NC(=O)[C@H](CCCNC(=N)N)NC(=O)[C@H](C)NC(=S)Nc1ccc(C2=C3C=CC(O)=CC3Oc3cc(O)ccc32)c(C(=O)O)c1)[C@@H](C)O)[C@@H](C)O)[C@@H](C)O)C(=O)O (some centres not stated)
pKd [8]: 6.05 to 6.10

Continued, values first:

Activity [2]: 64%
inhibition [3]: 64%
pIC50 (TP53-binding protein 1): 4.52
SMILES: CC(C)(C)NCCCNC(=O)c1cccc(Br)c1

pKd (Polycomb protein EED [4]): 6.17
pIC50 (Polycomb protein EED [5]): 5.76
SMILES: CC(C)C[C@H](NC(=O)[C@H](Cc1ccccc1)NC(=O)[C@H](CCCCN(C)C(C)C)NC(=O)[C@@H]1C[C@@H]2CCCC[C@@H]2N1)C(N)=O

GI50 (PC-3): 7600 nM
SMILES: CCN(CC)CCCC[C@H](NC(=O)[C@H](CC(C)C)NC(=O)[C@H](C)NC(=O)[C@H](Cc1ccccc1)NC(=O)c1ccc(C(C)(C)C)cc1)C(=O)N[C@@H](CO)C(=O)OC ({Benzoyl(4-tBu)}-FAL[Lys(Et2)]S-OMe)

pKi [7]: 9.40
SMILES: CN(C)[C@H]1CN(C2CCc3cccc(F)c32)C[C@@H]1c1ccc(N2CCN(S(C)(=O)=O)CC2)cc1 (some centres not stated)

pKd [9]: 5.30
SMILES: COC(=O)CNC(=O)[C@H](Cc1cnc[nH]1)NC(=O)[C@@H](NC(=O)[C@H](CO)NC(=O)[C@H](CCCC[N+](C)(C)C)NC(=O)[C@H](CC(C)C)NC(=O)[C@H](C)NC(=O)[C@H](Cc1ccccc1)NC(=O)CNC(=O)[C@H](CCCNC(=N)N)NC(=O)c1ccccc1)[C@@H](C)O (Bz-RGFAL[Lys(Me3)]STHG-OMe)
